Experimental data taken from ChEMBL document CHEMBL5346891, “Overview of the development of HBV small molecule inhibitors” (Eur J Med Chem, 2023).

Columns and labels:
[1] = system: Hepatitis B virus; assay: Antiviral activity against HBV infected in human HepG2.2.15 cells assessed as reduction in HBsAg measured after 7 day by enzyme immunoassay relative to control; type: functional, organism-based; conditions: HepG2.2.15, 168 h
[2] = system: Hepatitis B virus; assay: Antiviral activity against HBV infected in human HepG2.2.15 cells assessed as reduction in HBeAg at 100 ug/ml measured after 7 day by enzyme immunoassay relative to control; type: functional; conditions: HepG2.2.15, 168 h
[3] = system: Hepatitis B virus; assay: Antiviral activity against HBV infected in human HepG2.2.15 cells assessed as reduction in HBsAg at 100 ug/ml measured after 7 day by enzyme immunoassay relative to control; type: functional; conditions: HepG2.2.15, 168 h
[4] = system: Hepatitis B virus; assay: Antiviral activity against HBV stably transfected in human HepDES19 cells assessed as reduction in viral DNA measured after 7 days by q-PCR assay; type: functional, organism-based; conditions: HepDES19, 168 h
[5] = system: Hepatitis B virus; assay: Antiviral activity against HBV infected in human HepG2-NTCP12 cells assessed as reduction in viral DNA measured after 7 days by q-PCR assay; type: functional, organism-based; conditions: HepG2-NTCP12, 168 h
[6] = system: Hepatitis B virus; assay: Antiviral activity against HBV infected in human HepDES19 cells assessed as reduction in cccDNA accumulation by southern blot analysis; type: functional, organism-based
[7] = system: Hepatitis B virus; assay: Antiviral activity against drug-resistant HBV infected in human HepG2.2.15 cells; type: functional, organism-based
[8] = system: Hepatitis B virus; assay: Antiviral activity against HBV infected in human HepG2.2.15 cells; type: functional, organism-based
[9] = system: Hepatitis B virus; assay: Antiviral activity against HBV infected in human HepDES19 cells assessed as reduction in viral DNA replication measured after 72 hrs by q-PCR assay; type: functional, organism-based; conditions: HepDES19, 72 h
[10] = system: Hepatitis B virus; assay: Antiviral activity against HBV infected in human HepG2.2.15 cells assessed as reduction in HBeAg level measured after 144 hrs by ELISA; type: functional, organism-based; conditions: HepG2.2.15, 144 h
[11] = system: Hepatitis B virus; assay: Antiviral activity against HBV infected in human HepG2.2.15 cells assessed as reduction in HBsAg level measured after 144 hrs by ELISA; type: functional, organism-based; conditions: HepG2.2.15, 144 h
[12] = system: Hepatitis B virus; assay: Antiviral activity against HBV infected in human HepDES19 cells assessed as reduction in viral rcDNA level measured after 7 days by a branched chain DNA hybridization assay; type: functional, organism-based; conditions: HepDES19, 168 h
[13] = system: Hepatitis B virus; assay: Antiviral activity against HBV infected in human HePAD38 cells assessed as reduction in cccDNA level; type: functional, organism-based
[14] = system: Hepatitis B virus; assay: Antiviral activity against HBV infected in human HepG2 cells assessed as reduction in cccDNA transcription level; type: functional, organism-based
[15] = Modulation of capsid assembly in HBV genotype G assessed as inhibition of viral replication; type: functional, Hepatitis B virus
[16] = Modulation of capsid assembly in HBV genotype B assessed as inhibition of viral replication; type: functional, Hepatitis B virus
[17] = Modulation of capsid assembly in HBV genotype F assessed as inhibition of viral replication; type: functional, Hepatitis B virus
[18] = Modulation of capsid assembly in HBV genotype C assessed as inhibition of viral replication; type: functional, Hepatitis B virus
[19] = Modulation of capsid assembly in HBV genotype D assessed as inhibition of DNA replication; type: functional, Hepatitis B virus
[20] = Modulation of capsid assembly in HBV genotype E assessed as inhibition of viral replication; type: functional, Hepatitis B virus
[21] = Modulation of capsid assembly in HBV genotype H assessed as inhibition of viral replication; type: functional, Hepatitis B virus
[22] = Modulation of capsid assembly in HBV genotype A assessed as inhibition of viral replication; type: functional, Hepatitis B virus
[23] = system: Hepatitis B virus; assay: Antiviral activity against HBV infected in human HepG2.2.15 cells assessed as reduction in cccDNA transcription; type: functional, organism-based
[24] = system: Hepatitis B virus; assay: Antiviral activity against HBV infected in human HePAD38 cells assessed as inhibition of viral replication; type: functional, organism-based
[25] = system: Hepatitis B virus; assay: Antiviral activity against HBV infected in human HepG2.2.15 cells assessed as inhibition of viral replication; type: functional, organism-based
[26] = system: Hepatitis B virus; assay: Antiviral activity against HBV infected in human HepDE19 cells assessed as inhibition of viral replication; type: functional, organism-based
[27] = system: Hepatitis B virus; assay: Antiviral activity against HBV infected in human HepG2-hNTCP cells assessed as reduction in pgRNA level; type: functional, organism-based
[28] = system: Hepatitis B virus; assay: Antiviral activity against HBV infected in human Primary hepatocyte cells assessed as reduction in HBeAg level; type: functional, organism-based
[29] = system: Hepatitis B virus; assay: Antiviral activity against HBV infected in human HepG2.2.15 cells assessed as reduction in viral DNA level; type: functional, organism-based
[30] = system: Hepatitis B virus; assay: Antiviral activity against HBV infected in human Primary hepatocyte cells assessed as reduction in HBsAg level; type: functional, organism-based
[31] = system: Hepatitis B virus; assay: Antiviral activity against HBV infected in human Primary hepatocyte cells assessed as reduction in pgRNA level; type: functional, organism-based
[32] = system: Hepatitis B virus; assay: Antiviral activity against HBV infected in human HepG2-hNTCP cells assessed as reduction in HBeAg level; type: functional, organism-based
[33] = system: Hepatitis B virus; assay: Antiviral activity against HBV infected in human HepG2-hNTCP cells assessed as reduction in HBsAg level; type: functional, organism-based

Molecule `O=C(/C=C/c1ccc(O)c(O)c1)O[C@@H]1C[C@](O)(C(=O)O)C[C@@H](OC(=O)/C=C/c2ccc(O)c(O)c2)[C@H]1O` has an EC50 [1] of 90.5 µM, an inhibition at 100 µg/mL [2] of 73% and an inhibition at 100 µg/mL [3] of 81%.

Molecule `O=C(/C=C/c1ccc(O)c(O)c1)O[C@@H]1[C@H](O)C[C@@](O)(C(=O)O)C[C@H]1OC(=O)/C=C/c1ccc(O)c(O)c1` has an EC50 [1] of 31.9 µM, an inhibition at 100 µg/mL [2] of 81% and an inhibition at 100 µg/mL [3] of 90%.

With `CC(=O)c1cc(O)c(=O)c(O)cc1C` the EC50 [4] was 0.29 µM and the EC50 [5] was 0.057 µM.

`Cc1nc2cc(NC(=O)c3ccc(S(=O)(=O)N(C)Cc4ccccc4)cc3)ccc2s1` showed an EC50 [6] of 3 µM.

`O=C(CN(c1cc(C(F)(F)F)ccc1Cl)S(=O)(=O)c1ccccc1)NCc1ccncc1` gave an EC50 [6] of 10 µM.

Work on `CCOC(=O)C1=C(CN2CCOCC2)NC(c2nccs2)=N[C@H]1c1ccc(F)cc1Br` yielded an EC50 [7] of 0.01 µM and an EC50 [8] of 0.001 µM.

With `C/C(=N\OCc1ccccc1)c1c(C)cc(=O)n(O)c1O` the EC50 [9] was 0.54 µM.

Molecule `C=C(C)[C@@H]1CC[C@]2(C(=O)OC)CC[C@]3(COC(=O)c4ccccc4)[C@H](CC[C@@H]4[C@@]5(C)CC[C@H](OC(C)=O)C(C)(C)[C@@H]5CC[C@]43C)[C@H]12` has an EC50 [10] of 8.9 µM and an EC50 [11] of 8.9 µM.

`COc1ccc(CO/N=C(\C)c2c(C)cc(=O)n(O)c2O)cc1` gave an EC50 [9] of 0.26 µM and an EC50 [12] of 0.4 µM.

With `C/C(=N\OCc1ccc(F)cc1)c1c(C)cc(=O)n(O)c1O` the EC50 [9] was 0.11 µM and the EC50 [12] was 0.1 µM.

Work on `C/C(=N\OCc1ccc(C)cc1)c1c(C)cc(=O)n(O)c1O` yielded an EC50 [9] of 0.46 µM.

For `COc1ccccc1CO/N=C(\C)c1c(C)cc(=O)n(O)c1O`, the EC50 [9] was 0.5 µM.

`C/C(=N\OCc1ccccc1F)c1c(C)cc(=O)n(O)c1O` showed an EC50 [9] of 0.32 µM and an EC50 [12] of 0.33 µM.

For `Cc1c(C(=O)C(=O)NCC#N)c(C)n(C)c1C(=O)Nc1ccc(F)c(F)c1`, the EC50 [13] was 0.003 µM.

In the case of `Cc1c(O)c2cc(Br)cnc2n(O)c1=O`, the EC50 [4] is reported as 1.5 µM and the EC50 [5] is reported as 0.078 µM.

Molecule `CN[C@@H](C)C(=O)N[C@H]1CN(S(=O)(=O)c2cccc(S(=O)(=O)N3CC[C@H]4CC[C@@H](C(=O)NC(c5ccccc5)c5ccccc5)N4C(=O)[C@@H](NC(=O)[C@H](C)NC)C3)c2)CC[C@H]2CC[C@@H](C(=O)NC(c3ccccc3)c3ccccc3)N2C1=O` has an EC50 [14] of 0.02 µM.

With `C[C@H](NS(=O)(=O)c1cc(C(=O)Nc2ccc(F)c(C#N)c2)n(C)c1)C(F)(F)F` [BERSACAPAVIR] the EC50 [15] was 0.01 µM, the EC50 [16] was 0.01 µM and the EC50 [17] was 0.01 µM. It also gave an EC50 [18] of 0.01 µM, an EC50 [19] of 0.017 µM and an EC50 [20] of 0.01 µM. It also gave an EC50 [21] of 0.01 µM and an EC50 [22] of 0.01 µM.

In the case of `O=C1OCc2c1cc1ccc3c(c1c2-c1ccc2c(c1)OCO2)OCO3` [HELIOXANTHIN], the EC50 [23] is reported as 0.16 µM.

Molecule `CCOC(=O)C1=C(CN2CCN3C(=O)N(CC(C)(C)C(=O)O)C[C@@H]3C2)N=C(c2nccs2)N[C@H]1c1cccc(F)c1C` [LINVENCORVIR] has an EC50 [24] of 0.018 µM, an EC50 [25] of 0.017 µM and an EC50 [26] of 0.027 µM.

`O=C(NCc1cnc(C(F)(F)F)s1)c1ccc2c(c1)NC(=O)c1ccccc1S2(=O)=O` [VEBICORVIR] showed an EC50 [27] of 1.84 µM, an EC50 [28] of 1.84 µM and an EC50 [29] of 0.173 µM. The EC50 [30] was 1.84 µM, the EC50 [31] was 1.84 µM and the EC50 [32] was 1.84 µM. It also gave an EC50 [33] of 1.84 µM.
